Laboratory results reported in PubChem BioAssay (NCI).
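Method: 48-hour compound exposure of cells in 96-well plates, five concentrations, linear interpolation of endpoints. Here, GI50 denotes the concentration required for 50% inhibition of growth. TGI: concentration producing complete growth inhibition.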

Columns and labels:
Assay in all cases: NCI-60 cell line screen, 48 h
[1] = tested on: SK-MEL-2 melanoma
[2] = tested on: 786-0 renal
[3] = tested on: BT-549 breast
[4] = tested on: K-562 leukemia
[5] = tested on: SNB-75 CNS
[6] = tested on: RXF 393 renal
[7] = tested on: M14 melanoma
[8] = tested on: SK-MEL-5 melanoma
[9] = tested on: SW-620 colon
[10] = tested on: OVCAR-4 ovarian
[11] = tested on: HCT-116 colon
[12] = tested on: SF-295 CNS
[13] = tested on: CAKI-1 renal
[14] = tested on: TK-10 renal
[15] = tested on: SK-OV-3 ovarian
[16] = tested on: ACHN renal
[17] = tested on: A549 NSCLC
[18] = tested on: PC-3 prostate
[19] = tested on: MALME-3M melanoma
[20] = tested on: SF-539 CNS
[21] = tested on: IGROV1 ovarian
[22] = tested on: NCI/ADR-RES ovarian
[23] = tested on: SN12C renal
[24] = tested on: LOX IMVI melanoma
[25] = tested on: DU-145 prostate
[26] = tested on: OVCAR-3 ovarian
[27] = tested on: HL-60(TB) leukemia
[28] = tested on: HCC-2998 colon
[29] = tested on: OVCAR-8 ovarian
[30] = tested on: MDA-MB-435
[31] = tested on: SNB-19 CNS
[32] = tested on: UO-31 renal
[33] = tested on: EKVX NSCLC
[34] = tested on: NCI-H460 lung
[35] = tested on: HS 578T breast
[36] = tested on: COLO 205 colon
[37] = tested on: A498 renal
[38] = tested on: U251 CNS
[39] = tested on: HOP-92 NSCLC
[40] = tested on: NCI-H226 lung
[41] = tested on: CCRF-CEM leukemia
[42] = tested on: HOP-62 NSCLC
[43] = tested on: MOLT-4 leukemia
[44] = tested on: RPMI-8226 leukemia
[45] = tested on: NCI-H23 lung
[46] = tested on: SK-MEL-28 melanoma
[47] = tested on: UACC-257 melanoma
[48] = tested on: HCT-15 colon
[49] = tested on: MDA-MB-231 breast
[50] = tested on: OVCAR-5 ovarian
[51] = tested on: UACC-62 melanoma
[52] = tested on: HT29 colon
[53] = tested on: NCI-H522 lung
[54] = tested on: SF-268 CNS
[55] = tested on: KM12 colon
[56] = tested on: SR leukemia
[57] = tested on: MCF7 breast

CC(C)Cc1ccc(C(C)C(=O)NCc2ccc(Cn3c(=O)sn(CCCCl)c3=O)cc2)cc1 (configuration not stated)
GI50 [1]: 1.43 µM
TGI [1]: 3 µM
GI50 [2]: 0.551 µM
TGI [2]: 1.98 µM
GI50 [3]: 1.09 µM
TGI [3]: 2.7 µM
GI50 [4]: 0.412 µM
TGI [4]: > 100 µM
GI50 [5]: 0.445 µM
TGI [5]: 2.04 µM
GI50 [6]: 1.17 µM
TGI [6]: 2.41 µM
GI50 [7]: 0.621 µM
TGI [7]: 2.2 µM
GI50 [8]: 1.63 µM
TGI [8]: 2.99 µM
GI50 [9]: 0.497 µM
TGI [9]: 1.9 µM
GI50 [10]: 1.53 µM
TGI [10]: 3.02 µM
GI50 [11]: 0.235 µM
TGI [11]: 0.783 µM
GI50 [12]: 4.9 µM
TGI [12]: 17.5 µM
GI50 [13]: 0.619 µM
TGI [13]: 2.08 µM
GI50 [14]: 0.493 µM
TGI [14]: 1.85 µM
GI50 [15]: 6.13 µM
TGI [15]: 20 µM
GI50 [16]: 0.746 µM
TGI [16]: 2.02 µM
GI50 [17]: 1.79 µM
TGI [17]: 3.72 µM
GI50 [18]: 0.677 µM
TGI [18]: 2.27 µM
GI50 [19]: 1.56 µM
TGI [19]: 2.97 µM
GI50 [20]: 1.48 µM
TGI [20]: 2.81 µM
GI50 [21]: 0.744 µM
TGI [21]: 2.21 µM
GI50 [22]: 2.11 µM
TGI [22]: 8.25 µM
GI50 [23]: 1.34 µM
TGI [23]: 2.65 µM
GI50 [24]: 1.18 µM
TGI [24]: 2.52 µM
GI50 [25]: 1.46 µM
TGI [25]: 2.82 µM
GI50 [26]: 0.738 µM
TGI [26]: 2.03 µM
GI50 [27]: 3.82 µM
TGI [27]: > 100 µM
GI50 [28]: 1.85 µM
TGI [28]: 3.37 µM
GI50 [29]: 1.21 µM
TGI [29]: 2.87 µM
GI50 [30]: 1.14 µM
TGI [30]: 2.44 µM
GI50 [31]: 1.71 µM
TGI [31]: 3.3 µM
GI50 [32]: 0.672 µM
TGI [32]: 2.08 µM
GI50 [33]: 1.47 µM
TGI [33]: 2.78 µM
GI50 [34]: 1.65 µM
TGI [34]: 3.34 µM
GI50 [35]: 1.82 µM
TGI [35]: 4.9 µM
GI50 [36]: 1.12 µM
TGI [36]: 2.76 µM
GI50 [37]: 1.26 µM
TGI [37]: 2.87 µM
GI50 [38]: 1.63 µM
TGI [38]: 3.01 µM
GI50 [39]: 0.814 µM
TGI [39]: 2.26 µM
GI50 [40]: 1.43 µM
TGI [40]: 3.13 µM
GI50 [41]: 0.361 µM
TGI [41]: > 100 µM
GI50 [42]: 1.28 µM
TGI [42]: 2.73 µM
GI50 [43]: 0.962 µM
TGI [43]: > 100 µM
GI50 [44]: 0.375 µM
TGI [44]: 6.18 µM
GI50 [45]: 1.59 µM
TGI [45]: 3.26 µM
GI50 [46]: 1.65 µM
TGI [46]: 3.02 µM
GI50 [47]: 1.56 µM
TGI [47]: 2.98 µM
GI50 [48]: 0.511 µM
TGI [48]: 2.05 µM
GI50 [49]: 1.37 µM
TGI [49]: 2.72 µM
GI50 [50]: 1.75 µM
TGI [50]: 3.29 µM
GI50 [51]: 1.42 µM
TGI [51]: 2.76 µM
GI50 [52]: 1.6 µM
TGI [52]: 2.94 µM
GI50 [53]: 0.458 µM
TGI [53]: 2.01 µM
GI50 [54]: 1.6 µM
TGI [54]: 3.02 µM
GI50 [55]: 1.76 µM
TGI [55]: 3.45 µM

COc1cc(/C=C2\CCc3ccccc3C2=O)ccc1O
TGI [2]: 27.3 µM
TGI [3]: 37.7 µM
TGI [4]: 79.7 µM
TGI [5]: 79.1 µM
TGI [6]: 25 µM
TGI [7]: 33.5 µM
TGI [8]: 35.3 µM
TGI [9]: 33.9 µM
TGI [10]: 44.8 µM
TGI [13]: > 100 µM
TGI [14]: 37.8 µM
TGI [15]: 91.5 µM
TGI [16]: 58.1 µM
TGI [17]: 53.2 µM
TGI [20]: 30.4 µM
TGI [21]: > 100 µM
TGI [22]: 78.8 µM
TGI [23]: 49.7 µM
TGI [24]: 32.8 µM
TGI [56]: 48 µM
TGI [57]: 23.2 µM
TGI [26]: 36.1 µM
TGI [27]: 30.1 µM
TGI [28]: 33.7 µM
TGI [29]: 37.1 µM
TGI [31]: 30.2 µM
TGI [32]: 27.4 µM
TGI [33]: 59 µM
TGI [34]: 34.4 µM
TGI [35]: > 100 µM
TGI [38]: 31.7 µM
TGI [39]: 45.2 µM
TGI [41]: > 100 µM
TGI [43]: 69.1 µM
TGI [44]: 50.2 µM
TGI [45]: 52.3 µM
TGI [46]: 38.8 µM
TGI [48]: 75.7 µM
TGI [50]: 27.2 µM
TGI [52]: 32.7 µM
TGI [54]: 74.1 µM
TGI [55]: 30.8 µM
